Measurements reported in patent US9944598B2, “Mono- or di-substituted indole derivatives as dengue viral replication inhibitors” (priority 2014, dated 2018).

Assays:
[1] = tested on: DENV-2 16681 strain labeled with eGFP; experiment: DENV-2 antiviral assay (eGFP fluorescence, Vero cells); type: cell-based, Dengue virus; details: DENV-2 16681 eGFP, MOI 0.5, 3 days
Description: The antiviral activity of all the compounds of the invention was tested against DENV-2 16681 strain which was labeled with enhanced green fluorescent protein (eGPF). The culture medium consists of minimal essential medium supplemented with 2% of heat-inactivated fetal calf serum, 0.04% gentamycin (50 mg/mL) and 2 mM of L-glutamine. Vero cells, obtained from ECACC, were suspended in culture medium and 25 μL was added to 384-well plates (2500 cells/well), which already contain the antiviral compounds. Typically, these plates contain a 4-fold serial dilution of 9 dilution steps of the test compound at 200 times the final concentration in 100% DMSO (200 nL). In addition, each compound concentration is tested in quadruplicate (final concentration range: 25 μM-0.00038 μM). Finally, each plate contains wells which are assigned as virus controls (containing cells and virus in the absence of compound), cell controls (containing cells in the absence of virus and compound) and medium controls (containing medium in the absence of cells, virus and compounds). To the wells assigned as medium control, 25 μL of culture medium was added instead of Vero cells. Once the cells were added to the plates, the plates were incubated for 30 minutes at room temperature to allow the cells to distribute evenly within the wells. Next, the plates were incubated in a fully humidified incubator (37° C., 5% CO2) until the next day. Then, DENV-2 strain 16681, labeled with eGFP, was added at a multiplicity of infection (MOI) of 0.5. Therefore, 15 μL of virus suspension was added to all the wells containing test compound and to the wells assigned as virus control. In parallel, 15 μL of culture medium was added to the medium and cell controls. Next, the plates were incubated for 3 days in a fully humidified incubator (37° C., 5% CO2). At the day of the read out, the eGFP fluorescence was measured using an automated fluorescence microscope at 488 nm (blue laser). Using an in-house LIMS system, inhibition dose response curves for each compound were calculated and the half maximal effective concentration (EC50) was determined. Therefore, the percent inhibition (I) for every test concentration is calculated using the following formula: I=100*(ST−SCC)/(SVC−SCC); ST, SCC and SVC are the amount of eGFP signal in the test compound, cell control and virus control wells, respectively. The EC50 represents the concentration of a compound at which the virus replication is inhibited with 50%, as measured by a 50% reduction of the eGFP fluorescent intensity compared to the virus control. The EC50 is calculated using linear interpolation (Table 1).

in vitro = type: cell-based; details: African green monkey, CC50
Description: (§1) In parallel, the toxicity of the compounds was assessed on the same plates. Once the read-out for the eGFP signal was done, 10 μL of resazurin, a cell viability stain, was added to all wells of the 384-well plates. The resazurin assay is based on the reduction of the blue resazurin by NADH, produced by the cells, into the highly fluorescent product, resorufin. The formation of pink fluorescent resorufin is directly related to the number of viable cells in the well. The plates were incubated for an additional 5 hours in a fully humidified incubator (37° C., 5% CO2). Next, the plates were measured on an Infinite reader (Tecan) using an excitation wavelength of 530 nm. The half maximal cytotoxic concentration (CC50) was also determined, defined as the concentration required to reduce the resazurin conversion by 50% compared to that of the cell control wells (Table 1). Finally, the selectivity index (SI) is determined for the compounds, which is calculated as followed: SI=CC50/EC50.

Vero cells = experiment: in vitro; type: cell-based; details: African green monkey
Description: as §1

[2] = Dengue virus, DENV2, Vero, 72 h

| SMILES | EC50 [1, 2] [µM] | CC50 (in vitro) [µM] | EC50 [1] [µM] | CC50 (Vero cells) [µM] | melting point [°C] |
| --- | --- | --- | --- | --- | --- |
| COc1cc(NC(C(=O)c2c[nH]c3cc(F)c(F)cc23)c2ccc(Cl)cc2OC)cc(OCCO)c1 (racemic) [Compound 9, 2-(4-chloro-2-methoxyphenyl)-1-(5,6-difluoro-1H-indol-3-yl)-2-((3-(2-hydroxyethoxy)-5-methoxyphenyl)amino)ethanone] | 0.0022 | 7.3 |  |  |  |
| COc1cc(NC(C(=O)c2c[nH]c3c(C)cc(F)cc23)c2ccc(Cl)cc2OC)cc(OCCO)c1 (racemic) [Compound 8, 2-(4-chloro-2-methoxyphenyl)-1-(5-fluoro-7-methyl-1H-indol-3-yl)-2-((3-(2-hydroxyethoxy)-5-methoxyphenyl)amino)ethanone] | 0.0024 | 8 |  |  |  |
| COc1cc(NC(C(=O)c2c[nH]c3c(F)c(F)ccc23)c2ccc(Cl)cc2OC)cc(OCCO)c1 (single isomer, unassigned) [Compound 11A, 2-(4-chloro-2-methoxyphenyl)-1-(6,7-difluoro-1H-indol-3-yl)-2-((3-(2-hydroxyethoxy)-5-methoxyphenyl)amino)ethanone] |  | 6.5 | 0.09 |  |  |
| COc1cc(NC(C(=O)c2c[nH]c3c(F)cc(C)cc23)c2ccc(Cl)cc2OC)cc(OCCO)c1 (single isomer, unassigned) [Compound 10B, 2-(4-chloro-2-methoxyphenyl)-1-(7-fluoro-5-methyl-1H-indol-3-yl)-2-((3-(2-hydroxyethoxy)-5-methoxyphenyl)amino)ethanone] |  |  | 0.19 | 3.8 |  |
| COc1cc(NC(C(=O)c2c[nH]c3c(C)c(F)ccc23)c2ccc(Cl)cc2OC)cc(OCCO)c1 (single isomer, unassigned) [Compound 2B, 2-(4-chloro-2-methoxyphenyl)-1-(6-fluoro-7-methyl-1H-indol-3-yl)-2-((3-(2-hydroxyethoxy)-5-methoxyphenyl)amino)ethanone] |  |  | 0.081 | 6.2 |  |
| COc1cc(NC(C(=O)c2c[nH]c3c(C)cc(F)cc23)c2ccc(Cl)cc2OC)cc(OCCO)c1 (single isomer, unassigned) [Compound 8B, 2-(4-chloro-2-methoxyphenyl)-1-(5-fluoro-7-methyl-1H-indol-3-yl)-2-((3-(2-hydroxyethoxy)-5-methoxyphenyl)amino)ethanone] |  |  | 0.26 | 5.7 |  |
| COc1cc(NC(C(=O)c2c[nH]c3c(C)c(Cl)ccc23)c2ccc(Cl)cc2OC)cc(OCCO)c1 (racemic) [Compound 3, 2-(4-chloro-2-methoxyphenyl)-1-(6-chloro-7-methyl-1H-indol-3-yl)-2-((3-(2-hydroxyethoxy)-5-methoxyphenyl)amino)ethanone] | 0.00072 | 5.5 |  |  | 220 |
| COc1cc(NC(C(=O)c2c[nH]c3cc(Cl)ccc23)c2ccc(Cl)cc2OC)cc(OCCO)c1 (single isomer, unassigned) [Compound 4B, 1-(6-chloro-1H-indol-3-yl)-2-(4-chloro-2-methoxyphenyl)-2-((3-(2-hydroxyethoxy)-5-methoxyphenyl)amino)ethanone] |  |  | 0.045 | 7.4 |  |
| COc1cc(NC(C(=O)c2c[nH]c3cc(OC)c(C)cc23)c2ccc(Cl)cc2OC)cc(OCCO)c1 (single isomer, unassigned) [Compound 6B, 2-(4-chloro-2-methoxyphenyl)-2-((3-(2-hydroxyethoxy)-5-methoxyphenyl)amino)-1-(6-methoxy-5-methyl-1H-indol-3-yl)ethanone] |  |  | 0.076 | 5.4 |  |
| COc1cc(NC(C(=O)c2c[nH]c3cc(OC)ccc23)c2ccc(Cl)cc2OC)cc(OCCO)c1 (racemic) [Compound 5, 2-(4-chloro-2-methoxyphenyl)-2-((3-(2-hydroxyethoxy)-5-methoxyphenyl)amino)-1-(6-methoxy-1H-indol-3-yl)ethanone] | 0.0023 | 6.5 |  |  |  |
| COc1cc(NC(C(=O)c2c[nH]c3cc(OC)c(C)cc23)c2ccc(Cl)cc2OC)cc(OCCO)c1 (racemic) [Compound 6, 2-(4-chloro-2-methoxyphenyl)-2-((3-(2-hydroxyethoxy)-5-methoxyphenyl)amino)-1-(6-methoxy-5-methyl-1H-indol-3-yl)ethanone] | 0.0012 | 5.6 |  |  |  |
| COc1cc(NC(C(=O)c2c[nH]c3c(C)c(Cl)ccc23)c2ccc(Cl)cc2OC)cc(OCCO)c1 (single isomer, unassigned) [Compound 3B, 2-(4-chloro-2-methoxyphenyl)-1-(6-chloro-7-methyl-1H-indol-3-yl)-2-((3-(2-hydroxyethoxy)-5-methoxyphenyl)amino)ethanone] |  |  | 0.045 | 7.1 |  |
| COc1cc(NC(C(=O)c2c[nH]c3cc(OC)c(F)cc23)c2ccc(Cl)cc2OC)cc(OCCO)c1 (racemic) [Compound 7, 2-(4-chloro-2-methoxyphenyl)-1-(5-fluoro-6-methoxy-1H-indol-3-yl)-2-((3-(2-hydroxyethoxy)-5-methoxyphenyl)amino)ethanone] | 0.0026 | 7.4 |  |  |  |
| COc1cc(NC(C(=O)c2c[nH]c3cc(OC)c(F)cc23)c2ccc(Cl)cc2OC)cc(OCCO)c1 (single isomer, unassigned) [Compound 7B, 2-(4-chloro-2-methoxyphenyl)-1-(5-fluoro-6-methoxy-1H-indol-3-yl)-2-((3-(2-hydroxyethoxy)-5-methoxyphenyl)amino)ethanone] |  |  | 0.069 | 7.8 |  |
| COc1cc(NC(C(=O)c2c[nH]c3cc(F)ccc23)c2ccc(Cl)cc2OC)cc(OCCO)c1 (racemic) [Compound 1, 2-(4-chloro-2-methoxyphenyl)-1-(6-fluoro-1H-indol-3-yl)-2-((3-(2-hydroxyethoxy)-5-methoxyphenyl)amino)ethanone] | 0.003 | 6.2 |  |  |  |
| COc1cc(NC(C(=O)c2c[nH]c3c(F)c(F)ccc23)c2ccc(Cl)cc2OC)cc(OCCO)c1 (racemic) [Compound 11, 2-(4-chloro-2-methoxyphenyl)-1-(6,7-difluoro-1H-indol-3-yl)-2-((3-(2-hydroxyethoxy)-5-methoxyphenyl)amino)ethanone] | 0.0031 | 5.8 |  |  |  |
| COc1cc(NC(C(=O)c2c[nH]c3cc(Cl)ccc23)c2ccc(Cl)cc2OC)cc(OCCO)c1 (racemic) [Compound 4, 1-(6-chloro-1H-indol-3-yl)-2-(4-chloro-2-methoxyphenyl)-2-((3-(2-hydroxyethoxy)-5-methoxyphenyl)amino)ethanone] | 0.0014 | 6.3 |  |  | 154 |
| COc1cc(NC(C(=O)c2c[nH]c3cc(OC)ccc23)c2ccc(Cl)cc2OC)cc(OCCO)c1 (single isomer, unassigned) [Compound 5B, 2-(4-chloro-2-methoxyphenyl)-2-((3-(2-hydroxyethoxy)-5-methoxyphenyl)amino)-1-(6-methoxy-1H-indol-3-yl)ethanone] |  |  | 0.4 | 8.1 |  |
| COc1cc(NC(C(=O)c2c[nH]c3cc(F)ccc23)c2ccc(Cl)cc2OC)cc(OCCO)c1 (single isomer, unassigned) [Compound 1B, 2-(4-chloro-2-methoxyphenyl)-1-(6-fluoro-1H-indol-3-yl)-2-((3-(2-hydroxyethoxy)-5-methoxyphenyl)amino)ethanone] |  |  | 0.14 | 6.3 |  |
| COc1cc(NC(C(=O)c2c[nH]c3c(F)cc(C)cc23)c2ccc(Cl)cc2OC)cc(OCCO)c1 (stereo not drawn) [Compound 10, 2-(4-chloro-2-methoxyphenyl)-1-(7-fluoro-5-methyl-1H-indol-3-yl)-2-((3-(2-hydroxyethoxy)-5-methoxyphenyl)amino)ethanone] | 0.0075 | 5.8 |  |  |  |
